Results on one compound are retold here after patent US12383534B2, “Methods for treating cancer” (REGENTS OF THE UNIVERSITY OF MINNESOTA, priority 2021, dated 2025).

Experiment [1] concerns Ewing sarcoma cell lines (AF573, TC71, A673). Kind of experiment: Cell viability (ATP) assay in Ewing sarcoma cell lines. Format: cell-based. The following applies: 0.003 and 0.03 μM, 48 hours. As for the experimental part:
Cell lines were plated in a 96 well dish (1×10^5 cells/well), and the following day were treated with iP300w or its stereoisomers. ATP assays were performed using CellTiter-Glo® Luminescent Cell Viability Assay (Promega) according to the manufacturer's instructions. Luminescence was analyzed on POLARstar Optima Microplate Reader (BMG Labtech, Offenburg, Germany).
To determine whether iP300w was particularly active against CDS cells, vis-à-vis other related cancer cell lines, viability of 3 different Ewing sarcoma (ES) cell lines and several different immortalized cell lines treated with iP300w were compared. […] Furthermore, gene expression analyses confirmed the specificity of iP300w to CDS.

Experiment [2] has as its system ETV1, 4, and 5 in 3T3-CIC-DUX4, C2C12-CIC-DUX4 and LHCN-CIC-DUX4 cell lines. Kind of experiment: RT-qPCR for CIC-DUX4 target genes in cell lines overexpressing CIC-DUX4. Format: cell-based, mouse and human. The following applies: each CIC-DUX4 overexpressing cell line, 18 hours. As for the experimental part: Viral supernatants were produced in 293T cells. For transducing mouse cells (3T3 and C2C12), the CIC-DUX4 expression vector was packed with pCL-Eco, and for infecting human cells (293T, LHCN-M2) with psPAX2 and pMD2.G using FUGENE 6 (Roche). Viral supernatant was collected at 48 hours and 72 hours post-transfection and applied to the cells. Two days post-infection GFP positive cells were sorted using a BD FACSAria II. Established cell lines were tested for CIC-DUX4 expression by immunofluorescence and RT-qPCR.
RNA was extracted using an RNA extraction kit (Zymo) and cDNA was made using 0.5 μg total RNA with oligo-dT primer and Verso cDNA Synthesis Kit (Thermo Scientific) following the manufacturer's instructions. qPCRs were performed by using Premix Ex Taq (Probe qPCR, Takara) or SYBR-green. Gene expression levels were normalized to that of GAPDH and analyzed with 7500 System Software using the ACT method (Applied Biosystems). RNA-seq library preparation was done with 500 ng total RNA from NCC-CDS-X1 cells treated for 4 or 24 hours with iP300w (0.3 μM) using the Swift Rapid RNA Library Kit (SwiftBioscience). 36 base paired-end sequencing was performed on an Illumina NextSeq instrument at the University of Minnesota Genomics Center. […]

The test system of the next experiment is Kitra-SRS cells. Description: Immunofluorescence for Ki-67 in Kitra-SRS cells. Format: cell-based, human. The settings on record: 24 hours, 0.3 μM. As for the experimental part: (§1) For western blot analyses, cells were lysed with RIPA buffer supplemented with protease inhibitor cocktail (Complete, Roche), and proteins were separated on 10% SDS-PAGE gels, then transferred to PVDF membranes. Antibodies were diluted in 5% skim milk in TBST and incubated overnight at 4° C. or 1 hour at RT. An appropriate secondary HRP conjugated antibody was incubated for 1 hour at RT. Membranes were then washed with TBST, and signal was visualized using Pierce ECL western blotting substrate (Thermo Scientific). For immunofluorescence, cells cultured in 96 well plates were fixed in 4% PFA for 10 min., washed twice with PBS, permeabilized with 0.3% Triton X for 30 min, and blocked with 3% BSA for 1 hour at R/T. Primary antibodies were diluted in 3% BSA and incubated o/n at 4° C. An appropriate conjugated secondary antibody was applied for 60 min at RT. Nuclei were visualized using DAPI (1:5000, Sigma). […]

Experiment [3] deals with NCC-CDS-X1 subcutaneous xenograft tumors. Description: NCC-CDS-X1 xenograft tumor growth in mice. The class given is in vivo, mouse. The following applies: 1.4 mg/kg b.i.d. intraperitoneally from day 9, 12 days. As for the experimental part: Mice were maintained, and in vivo experiments were conducted at the University of Minnesota Research Animal Resources facility, under a protocol (1903-36866A) approved by IACUC. Immunodeficient NSG-MDX mice (n=8) were transplanted with 1×10^7 NCC-CDS-X1 cells resuspended in 100 uL of a mixture of medium and Matrigel (Corning). Visible tumor masses at the sites of injection were detected on day 9 after transplantation. All the injected mice developed tumors. At this point, the mice were randomized into two groups, control and iP300w treated, and initial measurement of the tumors was performed. iP300w was initially dissolved in DMSO at 10 mM and then diluted in 100 uL PBS. Each mouse received 1.4 mg/kg iP300w intraperitoneally twice daily or vehicle in the control group. Tumor size was recorded every 4 days and the volume was calculated using the formula (length×width^2)/2.
Finally, the effectiveness of iP300w to suppress CDS tumor growth in vivo was assessed. NCC-CDS-X1 cells were used to generate subcutaneous xenograft tumors in immunodeficient NSG mice (n=8). When tumors were palpable (day 9) iP300w injections (1.4 mg/kg b.i.d.) were initiated and the progression of tumor growth was monitored.

Another experiment relates to NCC-CDS-X1 cells. Kind of experiment: Immunofluorescence for Ki-67 in NCC-CDS-X1 cells. The settings on record: NCC-CDS-X1, 24 hours, 0.3 μM. The class given is cell-based, human. As for the experimental part:
as §1

SMILES strings stand for the structures.

Consider `CNC(=O)Cn1cc(-c2ccc3c(c2)[C@H](F)C[C@]32NC(=O)N(CC(=O)N(Cc3ccc(F)cc3)[C@@H](C)C(F)(F)F)C2=O)cn1` (single isomer, unassigned) [iP300w], for which, in experiment [1], the “effect on cell viability” value was “only effective for CIC-DUX4 driven sarcomas and not for the other cell lines”. The “effect on CIC-DUX4-induced ETV1, 4, and 5” value in experiment [2] is “reversible”. Moreover, in the experiment on Kitra-SRS cells, the Ki-67 positive staining entry is “almost complete absence of Ki-67 positive staining”. In experiment [3], the “treated mice with tumor growth halted” value was 5/8 and the “treated mice with tumor growth significantly diminished” value is 3/8. For the same compound, the Ki-67 positive staining entry in the experiment on NCC-CDS-X1 cells was “almost complete absence of Ki-67 positive staining”.
